{"source": "patent US20060035847A1", "about": "“Glucopyranosyloxyprazole derivatives and use thereof in medicines” (KISSEI PHARMACEUTICAL CO., LTD., priority 2000, published 2006)", "key": {"[1]": {"molecular_target": "T1, human SGLT2 (Homo sapiens, UniProt P31639, I433V)", "T1 construct": "expressed in transfected cells; host or cells: COS-7 cells (RIKEN CELL BANK RCB0539), transient, electroporation", "T1 sequence (P31639 1-672 I433V)": "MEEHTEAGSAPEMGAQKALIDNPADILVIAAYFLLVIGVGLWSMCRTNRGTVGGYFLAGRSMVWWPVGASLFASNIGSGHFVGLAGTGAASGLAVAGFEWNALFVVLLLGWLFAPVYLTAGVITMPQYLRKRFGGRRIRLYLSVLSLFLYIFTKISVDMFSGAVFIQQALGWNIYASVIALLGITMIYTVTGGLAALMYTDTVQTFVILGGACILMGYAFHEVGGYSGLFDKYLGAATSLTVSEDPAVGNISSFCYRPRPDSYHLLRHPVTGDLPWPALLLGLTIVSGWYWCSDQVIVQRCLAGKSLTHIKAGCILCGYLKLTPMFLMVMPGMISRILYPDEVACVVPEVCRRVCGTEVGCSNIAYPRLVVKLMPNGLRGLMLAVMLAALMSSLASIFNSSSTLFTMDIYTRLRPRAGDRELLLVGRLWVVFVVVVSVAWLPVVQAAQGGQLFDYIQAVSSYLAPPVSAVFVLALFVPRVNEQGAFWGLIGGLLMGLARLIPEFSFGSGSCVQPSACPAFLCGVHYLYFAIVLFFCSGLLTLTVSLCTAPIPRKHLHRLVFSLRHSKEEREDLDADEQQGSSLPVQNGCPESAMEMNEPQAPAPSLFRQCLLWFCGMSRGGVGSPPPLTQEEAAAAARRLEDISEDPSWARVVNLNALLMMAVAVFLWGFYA", "assay": "Assay for inhibitory effect on human SGLT2 activity (methyl-α-D-glucopyranoside uptake in COS-7 cells transiently expressing human SGLT2)", "type": "cell-based", "method": "Assay for Inhibitory Effect on Human SGLT2 Activity\n1) Construction of the Plasmid Vector Expressing Human SGLT2\nPreparation of the cDNA library for PCR amplification was performed by reverse transcription of a total RNA deprived from human kidney (Ori gene) with oligo dT as the primer, using SUPERSCRIPT Preamplification System (Gibco-BRL: LIFE TECHNOLOGIES). The DNA fragment coding for human SGLT2 was amplified by the PCR reaction, in which the human kidney cDNA library described above was used as the template and the following oligo nucleotides 0702F and 0712R, presented as sequence number 1 and 2 respectively, were used as the primers. The amplified DNA fragment was ligated into pCR-Blunt (Invitrogen), a vector for cloning, according to standard method of the kit. The Escherichia coli HB101 was transformed according to usual method and then selection of the transformants was performed on the LB agar medium containing 50 μg/mL of kanamycin. After plasmid DNA was extracted and purified from the one of the transformants, amplifying of the DNA fragment coding for human SGLT2 was performed by the PCR reaction, in which the following oligo nucleotides 0714F and 0715R, presented as sequence number 3 and 4 respectively, were used as the primers. The amplified DNA fragment was digested with restriction enzymes, Xho I and Hind III, and then purified with Wizard Purification System (Promega). This purified DNA fragment was inserted at into the corresponding restriction sites of pcDNA3.1 (−) Myc/His—B (Invitrogen), a vector for expressing of fusion protein. The Escherichia coli HB101 was transformed according to usual method and then selection of the transformant was performed on the LB agar medium containing 100 μg/mL of ampicillin. After plasmid DNA was extracted and purified from this transformant, the base sequence of the DNA fragment inserted at the multi-cloning sites of the vector pcDNA3.1 (−) Myc/His—B was analyzed. […] Sequentially, a clone in which valine is substituted for isoleucine-433 was obtained. This plasmid vector expressing human SGLT2 in which the peptide presented as sequence number 5 is fused to the carboxyl terminal alanine residue was designated KL29.\n2) Preparation of the Cells Expressing Transiently Human SGLT2\nKL29, the plasmid coding human SGLT2, was transfected into COS-7 cells (RIKEN CELL BANK RCB0539) by electroporation. Electroporation was performed with GENE PULSER II (Bio-Rad Laboratories) under the condition: 0.290 kV, 975 μF, 2×10^6 cells of COS-7 cell and 20 μg of KL29 in 500 μL of OPTI-MEM I medium (Gibco-BRL: LIFE TECHNOLOGIES) in the 0.4 cm type cuvette. After the gene transfer, the cells were harvested by centrifugation and resuspended with OPTI-MEM I medium (1 mL/cuvette). To each well in 96-wells plate, 125 μL of this cell suspension was added. After overnight culture at 37° C. under 5% CO2, 125 μL of DMEM medium which is containing 10% of fetal bovine serum (Sanko Jyunyaku), […] sodium penicillin G (Gibco-BRL: LIFE TECHNOLOGIES), 100 μg/mL streptomycin sulfate (Gibco-BRL: LIFE TECHNOLOGIES) was added to each well. These cells were cultured until the next day and then they were used for the measurement of the inhibitory activity against the uptake of methyl-α-D-glucopyranoside.\n3) Measurement of the Inhibitory Activity Against the Uptake of methyl-α-D-glucopyranoside\nAfter a test compounds was dissolved in dimethyl sulfoxide and diluted with the uptake buffer (a pH 7.4 buffer containing 140 mM sodium chloride, 2 mM potassium chloride, 1 mM calcium chloride, 1 mM magnesium chloride, 5 mM methyl-α-D-glucopyranoside, 10 mM 2-[4-(2-hydroxyethyl)-1-piperazinyl]ethane sulfonic acid and 5 mM tris(hydroxymethyl)aminomethane), each diluent was used as test sample for measurement of the inhibitory activity. […]"}, "[2]": {"test_system": "normal mice", "conditions": "cited from earlier work"}, "[3]": {"test_system": "SD rats", "assay": "Assay for the facilitatory effect on urinary glucose excretion", "type": "in vivo", "conditions": "glucose load 2 g/kg, 24 hours urine", "method": "Assay for the Facilitatory Effect on Urinary Glucose Excretion\n(§1) As experimental animal, overnight fasted SD rats (Japan SLC. Inc., male, 7 weeks of age, 202-221 g) were used. A Test compound was suspended in 0.5% sodium carboxymethylcellulose solution at the concentration of 2 mg/mL. When homogenous suspension was not obtained in this condition, the test compound was dissolved in ethanol at the concentration of 200 mg/mL of active form and then 2 mg/mL suspension was obtained by adding this solution to 99 times volumes of 0.5% sodium carboxymethylcellulose solution. A part of this suspension was diluted with 0.5% sodium carboxymethylcellulose solution and then 0.6 and 0.2 mg/mL suspensions were prepared. After the body weights of rats were measured, the test suspension was orally administered at the dose of 5 mL/kg (1, 3 and 10 mg/kg). For control, just only 0.5% sodium carboxymethylcellulose solution was orally administered at the dose of 5 mL/kg. Immediately after this oral administration, 400 g/L glucose solution was orally administered at the dose of 5 mL/kg (2 g/kg). The oral administration was performed with gastric tube for rat and 2.5 mL syringe. The head count in one group was 3. Collection of urine was performed in metabolic cage after the glucose administration was finished. The sampling time for collection of urine was 24 hours after the glucose administration. After collection of urine was finished, the urine volume was recorded and the urinary glucose concentration was measured. The glucose concentration was measured with a kit for laboratory test: Glucose B-Test WAKO (Wako Pure Chemical Industries, Ltd.). The amount of urinary glucose excretion in 24 hours per 200 g of body weight was calculated from urine volume, urinary glucose concentration and body weight.\nas §1, with “bodyweights” for “body weights”"}, "[4]": {"test_system": "ICR mice", "assay": "Acute toxicity test", "type": "in vivo", "conditions": "male ICR mice, oral 2000 mg/kg, observation until 24 hours, 5 animals in each group", "method": "After 4 week old male ICR mice (Japan SLC. Inc., 20-25 g, 5 animals in each group) were fasted for 4 hours, the suspension (200 mg/mL) prepared by adding of 0.5% sodium carboxymethylcellulose solution to the test compound was orally administered at the dose of 10 mL/kg (2000 mg/kg). Observation was performed until 24 hours after the administration."}}, "data": [{"smiles": "CSc1ccc(Cc2c(C(F)(F)F)[nH][nH]c2=O)cc1", "note": "[WAY-123783, reference compound]", "values": [{"measurement": "inhibitory activity in human SGLT2 (in words)", "setting": "[1]", "value": "extremely weak inhibitory activity"}, {"measurement": "IC50", "setting": "[1]; inhibition of methyl-α-D-glucopyranoside uptake, COS-7 cells expressing human SGLT2, 37° C., 2 hours", "value": "> 100", "unit": "µM"}, {"measurement": "amount of excreted glucose", "setting": "[2]", "value": "increased"}]}, {"smiles": "CCOC(=O)OC[C@H]1O[C@@H](Oc2nn(C(C)C)c(C)c2Cc2ccc(OC(C)C)cc2)[C@H](O)[C@@H](O)[C@@H]1O", "note": "[Example 1, 3-(6-O-Ethoxycarbonyl-β-D-glucopyranosyloxy)-4-[(4-isopropoxyphenyl)methyl]-1-isopropyl-5-methylpyrazole]", "values": [{"measurement": "Amount of Urinary Glucose Excretion", "setting": "[3]; oral dose 1 mg/kg", "value": "1.6 mg/24 hours · 200 g body weight"}, {"measurement": "Amount of Urinary Glucose Excretion", "setting": "[3]; oral dose 3 mg/kg", "value": "28.3 mg/24 hours · 200 g body weight"}, {"measurement": "Amount of Urinary Glucose Excretion", "setting": "[3]; oral dose 10 mg/kg", "value": "127.5 mg/24 hours · 200 g body weight"}]}, {"smiles": "COC(=O)OC[C@H]1O[C@@H](Oc2nn(C(C)C)c(C)c2Cc2ccc(OC(C)C)cc2)[C@H](O)[C@@H](O)[C@@H]1O", "note": "[Example 15, 4-[(4-Isopropoxyphenyl)methyl]-1-isopropyl-3-(6-O-methoxycarbonyl-β-D-glucopyranosyloxy)-5-methylpyrazole]", "values": [{"measurement": "Amount of Urinary Glucose Excretion", "setting": "[3]; oral dose 1 mg/kg", "value": "1.7 mg/24 hours · 200 g body weight"}, {"measurement": "Amount of Urinary Glucose Excretion", "setting": "[3]; oral dose 3 mg/kg", "value": "36.8 mg/24 hours · 200 g body weight"}, {"measurement": "Amount of Urinary Glucose Excretion", "setting": "[3]; oral dose 10 mg/kg", "value": "167.3 mg/24 hours · 200 g body weight"}]}, {"smiles": "COC(=O)OC[C@H]1O[C@@H](Oc2n[nH]c(C)c2Cc2ccc(OC(C)C)cc2)[C@H](O)[C@@H](O)[C@@H]1O", "note": "[Example 48, 4-[(4-Isopropoxyphenyl)methyl]-3-(6-O-methoxycarbonyl-β-D-glucopyranosyloxy)-5-methyl-1H-pyrazole]", "values": [{"measurement": "Death number", "setting": "[4]", "value": "0/5"}]}]}
